In brackets after ≈: the same amount, converted by molar mass. Like-named read-outs stand apart in the source and are kept apart here.
Tested on: human non-small cell lung cancer (NSCLC) A549 cells
Assay: MTT cell viability assay, lung cancer cells
Type: cell-based
Experimental: The human non-small cell lung cancer (NSCLC) A549 cells were cultured in RPMI 1640 culture medium supplemented with 10% fetal bovine serum (FBS) and 1% penicillin/streptomycin in a incubator at 37° C. in a 5% CO2. Human normal fibroblast lung cell Wi38 were cultured in MEM culture medium supplemented with 10% FBS and 1% penicillin/streptomycin.
The cell viability rate was measured using MTT [3-(4,5-dimethylthiazol-2-yl)-2,5-diphenyl-tetrazolium bromide] assay. Specifically, lung cancer cells (A549, 7×10^3 cells/well), colon cancer cells (HCT-15, 5×10^3 cells/well), liver cancer cells (Sk-hep-1, 5×10^3 cells/well), pancreatic cancer cells (PANC-1, 5×10^3 cells/well), and breast cancer cells (MCF-7, 2×10^3 cells/well) were seeded in a 96-well culture plate at 3 times repeatedly, and cultured overnight at 37° C. in 5% CO2 with RPMI 1640 medium containing 10% FBS. Subsequently, the cell-free supernatant was added to each well at concentrations of 1×, 2×, 5×, and 10×, with 100 μL per well, and cultured for 24 hours at 37° C. in 5% CO2.
To assess cell apoptosis, MTT reagent at a concentration of 5 mg/ml was added to each well with 10 μL per well and reacted for 4 hours at 37° C. in 5% CO2. The cells were then dissolved in dimethyl sulfoxide (DMSO, 100 μL/well), and the absorbance at 570 nm was measured using a microplate reader.
The cell viability rate was calculated as a percentage using the following formula. The cell toxicity test was conducted in triplicate, and the values are presented as mean±standard deviation.
To confirm the efficacy of Cyclo(L-pro-L-tyr), the active ingredient of Enterococcus faecium LCM001, as well as its derivatives on apoptosis of non-small cell lung cancer A549 cells, the inventors conducted an MTT assay on Cyclo(L-pro-L-tyr), Cyclo(L-Phe-L-pro), Cyclo(L-Phe-trans-4-hydroxy-L-Pro), Cyclo(L-Pro-D-Phe), and Cyclo(Tyr-Hpro), and calculated their IC50 values.

Structure (SMILES)	IC50	IC50 (Homo sapiens, read-out: IC50)
O=C1N[C@@H](Cc2ccccc2)C(=O)N2CCC[C@@H]12 [Cyclo(L-Phe-L-pro)]	26.1 µg/mL (≈ 107 µM)	–
O=C1NC(Cc2ccc(O)cc2)C(=O)N2CCC[C@@H]12 (stereo partly drawn) [Cyclo(L-pro-L-tyr), Cyclo(L-Pro-L-Tyr)]	–	99.6 µg/mL (≈ 382 µM)
O=C1N[C@@H](Cc2ccccc2)C(=O)N2C[C@H](O)C[C@@H]12 (relative stereo) [Cyclo(L-Phe-trans-4-hydroxy-L-Pro)]	57.58 µg/mL (≈ 221 µM)	–

Second part, led by results:

IC50	Structure (SMILES)	IC50 (Homo sapiens, read-out: IC50)
119 µg/mL (≈ 431 µM)	O=C1NC(Cc2ccc(O)cc2)C(=O)N2CC(O)CC12 (centres unmarked) [Cyclo(Tyr-Hpro)]	–
94.56 µg/mL (≈ 387 µM)	O=C1NC(Cc2ccccc2)C(=O)N2CCCC12 [Cyclo(L-Pro-D-Phe)]	–
